Type in all cases: cell-based
For one assay, the system named is AR / CBP ternary complex. Nature of the assay: Ternary complex formation assay (sandwich ELISA, AR capture / CBP detection) in VCaP cell lysates. The settings on record: 1.5 hours treatment, sandwich ELISA (AR capture, CBP or p300 detection). In a few lines:
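Anti-AR (AR 441)-coated plates capture AR from lysates of VCaP cells grown ≥3 days at 50K/well in 5% charcoal-stripped FBS, dosed with bifunctional for 1.5 h and lysed 30 min at 4 °C. Co-captured CBP/p300 is probed with rabbit mAb and HRP anti-rabbit, then QuantaRed fluorescence (570/585) is read at 0, 5 and 15 min.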
Background: An ELISA detects its analyte on a solid surface through an enzyme-linked reagent.

The test system of the next assay is VCaP cells. Briefly: VCaP growth inhibition assay. The settings on record: 30 pM R1881, 9 days, CTG. In a few lines: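 Growth read by CTG luminescence after 9-day exposure to compound (final 100 nM–10 fM, 1:5 steps) plus 30 pM R1881, in phenol red-free DMEM with 5% CSS. Cells pre-incubated 72 h before dosing; IC50 by nonlinear 4-parameter regression.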
Another assay has as its system HEK-293 cells. Nature of the assay: HEK-293 growth inhibition assay. The following applies: 3 days, CTG. As for the experimental part:
Cluster plates are returned to the incubator (37*C/5% CO2) for 24 hours prior to treatment. […] Cluster plates are returned to the incubator for 3 days.
After the 3-day treatment period, 100 uL media was removed from each well by aspiration and 100 uL room temperature CTG reagent (Promega Cat #G7573) is added back to each well. The cluster plates are placed on a shaker and incubated at room temperature for 20 minutes. Following this shaking/incubation, cluster plates are read on a luminometer (BMG ClarioStar). IC50 values are obtained by graphing the RLU data vs. compound concentration with nonlinear regression 4-parameter logistic curves (GraphPad Prism).

As usually defined, the EC50 is the midpoint of the concentration-response curve. A high value points to lower potency in that assay. As a reminder, the IC50 is the concentration at which inhibition is half-maximal. Higher therefore signals a need for much substance.

The structures appear in SMILES notation. A value given as a limit tells only on which side of the number the result lay.

As for `CC(=O)N1CCc2c(c(-c3cccc4cc(-c5ccc(OCc6ncc(C(=O)NC7C(C)(C)C(Oc8ccc(C#N)c(Cl)c8)C7(C)C)cn6)nc5)ncc34)nn2C2CCOCC2)C1` (stereo not drawn) [Compound 72, 2-[[5-[8-(5-acetyl-1-tetrahydropyran-4-yl-6,7-dihydro-4H-pyrazolo[4,3-c]pyridin-3-yl)-3-isoquinolyl]-2-pyridyl]oxymethyl]-N-[3-(3-chloro-4-cyano-phenoxy)-2,2,4,4-tetramethyl-cyclobutyl]pyrimidine-5-carboxamide], the EC50 in the assay on AR / CBP ternary complex was below 1 nM. In addition, the IC50 in the assay with VCaP cells was 0.1 to 1 nM; with HEK-293 cells, above 10 µM.

The compound `CC(=O)N1CCc2c(c(N3CCCc4cc(-c5cnn(C)c5)c(C(F)F)cc43)nn2C2CCN(CC3CCN(c4ncc(C(=O)NC5C(C)(C)C(Oc6ccc(C#N)c(Cl)c6)C5(C)C)cn4)CC3)CC2)C1` (stereo not drawn) [Compound 84, 2-[4-[[4-[5-acetyl-3-[7-(difluoromethyl)-6-(1-methylpyrazol-4-yl)-3,4-dihydro-2H-quinolin-1-yl]-6,7-dihydro-4H-pyrazolo[4,3-c]pyridin-1-yl]-1-piperidyl]methyl]-1-piperidyl]-N-[3-(3-chloro-4-cyano-phenoxy)-2,2,4,4-tetramethyl-cyclobutyl]pyrimidine-5-carboxamide] had an EC50 in the assay on AR / CBP ternary complex below 1 nM. Also, the figures for the IC50 with VCaP cells and in the assay on HEK-293 cells were at most 0.1 nM and above 10 µM, respectively.

On to `CC(=O)N1CCc2c(c(N3CCCc4cc(-c5cnn(C)c5)c(C(F)F)cc43)nn2C2CCN(C(=O)OC3CCN(c4ncc(C(=O)NC5C(C)(C)C(Oc6ccc(C#N)c(Cl)c6)C5(C)C)cn4)CC3)CC2)C1` (stereo not drawn) [Compound 70, [1-[5-[[3-(3-chloro-4-cyano-phenoxy)-2,2,4,4-tetramethyl-cyclobutyl]carbamoyl]pyrimidin-2-yl]-4-piperidyl]4-[5-acetyl-3-[7-(difluoromethyl)-6-(1-methylpyrazol-4-yl)-3,4-dihydro-2H-quinolin-1-yl]-6,7-dihydro-4H-pyrazolo[4,3-c]pyridin-1-yl]piperidine-1-carboxylate], for which the concentration giving a half-maximal response (EC50) in the assay with AR / CBP ternary complex was below 1 nM. Moreover, the figures for the half-maximal inhibitory concentration (IC50) in the assay on VCaP cells and in the assay on HEK-293 cells were 0.1 to 1 nM and above 10 µM, respectively.

As for `COc1cc(OC2C(C)(C)C(NC(=O)c3ccc(N4CC5(CCC(N6CCC(n7nc(N8CCCc9cc(-c%10cnn(C)c%10)c(C(F)F)cc98)c8c7CCN(C(C)=O)C8)CC6)CC5)C4)cc3)C2(C)C)ccc1C#N` (stereo not drawn) [Compound 273, 4-[7-[4-[5-acetyl-3-[7-(difluoromethyl)-6-(1-methylpyrazol-4-yl)-3,4-dihydro-2H-quinolin-1-yl]-6,7-dihydro-4H-pyrazolo[4,3-c]pyridin-1-yl]-1-piperidyl]-2-azaspiro[3.5]nonan-2-yl]-N-[3-(4-cyano-3-methoxy-phenoxy)-2,2,4,4-tetramethyl-cyclobutyl]benzamide], the EC50 with AR / CBP ternary complex is below 1 nM. Further, the figures for the 50% inhibitory concentration (IC50) in the assay on VCaP cells and in the assay on HEK-293 cells were at most 0.1 nM and above 1 µM, respectively.

`CC(=O)N1CCc2c(c(N3CCCc4cc(-c5cnn(C)c5)c(C(F)F)cc43)nn2C2CCN(C(=O)COC3CCN(c4ncc(C(=O)NC5C(C)(C)C(Oc6ccc(C#N)c(Cl)c6)C5(C)C)cn4)CC3)CC2)C1` (stereo not drawn) [Compound 69, 2-[4-[2-[4-[5-acetyl-3-[7-(difluoromethyl)-6-(1-methylpyrazol-4-yl)-3,4-dihydro-2H-quinolin-1-yl]-6,7-dihydro-4H-pyrazolo[4,3-c]pyridin-1-yl]-1-piperidyl]-2-oxo-ethoxy]-1-piperidyl]-N-[3-(3-chloro-4-cyano-phenoxy)-2,2,4,4-tetramethyl-cyclobutyl]pyrimidine-5-carboxamide] gave an EC50 with AR / CBP ternary complex below 1 nM. The IC50 was 0.1 to 1 nM in the assay with VCaP cells and above 10 µM in the assay on HEK-293 cells.

`CC(=O)N1CCc2c(c(-c3cccc4cc(-c5ccc(C(=O)NCc6ncc(C(=O)NC7C(C)(C)C(Oc8ccc(C#N)c(Cl)c8)C7(C)C)cn6)nc5)ncc34)nn2C2CCOCC2)C1` (stereo not drawn) [Compound 79, 2-[[[5-[8-(5-acetyl-1-tetrahydropyran-4-yl-6,7-dihydro-4H-pyrazolo[4,3-c]pyridin-3-yl)-3-isoquinolyl]pyridine-2-carbonyl]amino]methyl]-N-[3-(3-chloro-4-cyano-phenoxy)-2,2,4,4-tetramethyl-cyclobutyl]pyrimidine-5-carboxamide] registered an EC50 with AR / CBP ternary complex below 1 nM. For the same compound, the values for the IC50 in the assay with VCaP cells and in the assay on HEK-293 cells were 0.1 to 1 nM and above 10 µM, respectively.

`CC(=O)N1CCc2c(c(N3CCCc4cc(-c5cnn(C)c5)c(C(F)F)cc43)nn2C2CCN(C(=O)CN3CCN(c4ncc(C(=O)NC5C(C)(C)C(Oc6ccc(C#N)c(Cl)c6)C5(C)C)cn4)CC3)C2)C1` (stereo not drawn) [Compound 64, 2-[4-[2-[3-[5-acetyl-3-[7-(difluoromethyl)-6-(1-methylpyrazol-4-yl)-3,4-dihydro-2H-quinolin-1-yl]-6,7-dihydro-4H-pyrazolo[4,3-c]pyridin-1-yl]pyrrolidin-1-yl]-2-oxo-ethyl]piperazin-1-yl]-N-[3-(3-chloro-4-cyano-phenoxy)-2,2,4,4-tetramethyl-cyclobutyl]pyrimidine-5-carboxamide] gave an EC50 in the assay on AR / CBP ternary complex below 1 nM. The figures for the IC50 with VCaP cells and in the assay on HEK-293 cells were 0.1 to 1 nM and above 10 µM, respectively.

Turning to `CC(=O)N1CCc2c(c(N3CCCc4cc(-c5cnn(C)c5)c(C(F)F)cc43)nn2C2CCN(C3CCN(c4ncc(C(=O)NC5C(C)(C)C(Oc6ccc(C#N)c(Cl)c6)C5(C)C)cn4)CC3)CC2)C1` (stereo not drawn) [Compound 85, 2-[4-[4-[5-acetyl-3-[7-(difluoromethyl)-6-(1-methylpyrazol-4-yl)-3,4-dihydro-2H-quinolin-1-yl]-6,7-dihydro-4H-pyrazolo[4,3-c]pyridin-1-yl]-1-piperidyl]-1-piperidyl]-N-[3-(3-chloro-4-cyano-phenoxy)-2,2,4,4-tetramethyl-cyclobutyl]pyrimidine-5-carboxamide], in the assay with AR / CBP ternary complex, the EC50 is below 1 nM. Also, the IC50 in the assay on VCaP cells is 0.1 to 1 nM; in the assay on HEK-293 cells, above 10 µM.

The compound `CC(=O)N1CCc2c(c(N3CCCc4cc(-c5cnn(C)c5)c(C(F)F)cc43)nn2C2CCN(C(=O)CC3CCN(c4ncc(C(=O)NC5C(C)(C)C(Oc6ccc(C#N)c(Cl)c6)C5(C)C)cn4)CC3)CC2)C1` (stereo not drawn) [Compound 172, 2-[4-[2-[4-[5-acetyl-3-[7-(difluoromethyl)-6-(1-methylpyrazol-4-yl)-3,4-dihydro-2H-quinolin-1-yl]-6,7-dihydro-4H-pyrazolo[4,3-c]pyridin-1-yl]-1-piperidyl]-2-oxo-ethyl]-1-piperidyl]-N-[3-(3-chloro-4-cyano-phenoxy)-2,2,4,4-tetramethyl-cyclobutyl]pyrimidine-5-carboxamide] came in with an EC50 in the assay on AR / CBP ternary complex below 1 nM. For the same compound, the IC50 is at most 0.1 nM in the assay on VCaP cells and above 10 µM in the assay on HEK-293 cells.

`CNC(=O)N1CCc2c(c(N3CCCc4cc(-c5cnn(C)c5)c(C(F)F)cc43)nn2C2CCN(C(=O)COCCN3CCN(c4ncc(C(=O)NC5C(C)(C)C(Oc6ccc(C#N)c(Cl)c6)C5(C)C)cn4)CC3)CC2)C1` (stereo not drawn) [Compound 106, 1-[1-[2-[2-[4-[5-[[3-(3-chloro-4-cyano-phenoxy)-2,2,4,4-tetramethyl-cyclobutyl]carbamoyl]pyrimidin-2-yl]piperazin-1-yl]ethoxy]acetyl]-4-piperidyl]-3-[7-(difluoromethyl)-6-(1-methylpyrazol-4-yl)-3,4-dihydro-2H-quinolin-1-yl]-N-methyl-6,7-dihydro-4H-pyrazolo[4,3-c]pyridine-5-carboxamide] registered an EC50 in the assay with AR / CBP ternary complex below 1 nM. The IC50 in the assay on VCaP cells was at most 0.1 nM; in the assay on HEK-293 cells, above 10 µM.

`C[C@@H]1CC(=O)Nc2cccc(-c3ccc4c(c3)c(C3CC3)nn4CCCN3CCN(c4ncc(C(=O)NC5C(C)(C)C(Oc6ccc(C#N)c(Cl)c6)C5(C)C)cn4)CC3)c2N1` (stereo partly drawn) [Compound 59, N-[3-(3-chloro-4-cyano-phenoxy)-2,2,4,4-tetramethyl-cyclobutyl]-2-[4-[3-[3-cyclopropyl-5-[(4R)-4-methyl-2-oxo-1,3,4,5-tetrahydro-1,5-benzodiazepin-6-yl]indazol-1-yl]propyl]piperazin-1-yl]pyrimidine-5-carboxamide] gave an EC50 in the assay with AR / CBP ternary complex above 100 nM. For the same compound, the IC50 with VCaP cells is above 100 nM; in the assay on HEK-293 cells, above 10 µM.

In the assay on AR / CBP ternary complex, `CNC(=O)N1CCc2c(c(N3CCCc4cc(-c5cnn(C)c5)c(C(F)F)cc43)nn2C2CCN(C(=O)COCCOCCCN3CCN(c4ncc(C(=O)NC5C(C)(C)C(Oc6ccc(C#N)c(Cl)c6)C5(C)C)cn4)CC3)CC2)C1` (stereo not drawn) [Compound 102, 1-[1-[2-[2-[3-[4-[5-[[3-(3-chloro-4-cyano-phenoxy)-2,2,4,4-tetramethyl-cyclobutyl]carbamoyl]pyrimidin-2-yl]piperazin-1-yl]propoxy]ethoxy]acetyl]-4-piperidyl]-3-[7-(difluoromethyl)-6-(1-methylpyrazol-4-yl)-3,4-dihydro-2H-quinolin-1-yl]-N-methyl-6,7-dihydro-4H-pyrazolo[4,3-c]pyridine-5-carboxamide] had an EC50 below 1 nM. Besides, the IC50 in the assay on VCaP cells was 0.1 to 1 nM; with HEK-293 cells it was above 10 µM.

The values are drawn from US20250129070A1, “BIFUNCTIONAL ANDROGEN RECEPTOR COMPOUNDS” (priority 2023, published 2025).
